Target: T1, Fyn-mTMC2-mCherry+mTMIE channel (Mus musculus, UniProt Q8R4P4)
T1 construct: expressed in transfected cells; host or cells: PK-HEK293T (PIEZO1-knockout HEK293T)
T1 sequence (Q8R4P4 1-888): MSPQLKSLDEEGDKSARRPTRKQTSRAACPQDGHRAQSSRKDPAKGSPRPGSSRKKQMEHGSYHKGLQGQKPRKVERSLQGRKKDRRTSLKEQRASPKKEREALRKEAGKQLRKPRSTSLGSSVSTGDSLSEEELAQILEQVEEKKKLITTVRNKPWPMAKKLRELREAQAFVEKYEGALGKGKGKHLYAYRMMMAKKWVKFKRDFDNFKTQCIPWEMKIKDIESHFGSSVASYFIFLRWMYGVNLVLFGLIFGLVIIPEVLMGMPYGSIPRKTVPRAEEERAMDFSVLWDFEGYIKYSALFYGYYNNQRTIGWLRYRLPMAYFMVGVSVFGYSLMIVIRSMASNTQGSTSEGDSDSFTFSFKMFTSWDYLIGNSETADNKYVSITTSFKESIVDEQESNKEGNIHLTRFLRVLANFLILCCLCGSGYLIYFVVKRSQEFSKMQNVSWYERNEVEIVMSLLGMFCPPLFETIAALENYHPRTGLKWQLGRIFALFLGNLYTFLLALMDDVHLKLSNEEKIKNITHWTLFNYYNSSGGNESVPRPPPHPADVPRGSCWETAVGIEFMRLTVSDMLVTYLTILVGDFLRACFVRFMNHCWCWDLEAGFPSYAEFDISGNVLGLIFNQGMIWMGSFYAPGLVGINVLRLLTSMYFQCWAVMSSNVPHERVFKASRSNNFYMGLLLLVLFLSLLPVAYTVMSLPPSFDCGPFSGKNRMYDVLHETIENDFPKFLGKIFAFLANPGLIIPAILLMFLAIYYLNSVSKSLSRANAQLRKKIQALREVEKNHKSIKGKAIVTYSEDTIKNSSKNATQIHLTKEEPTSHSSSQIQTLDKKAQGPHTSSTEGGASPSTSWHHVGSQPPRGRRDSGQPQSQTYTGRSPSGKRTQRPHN
T1 sequence (Q8K467 29-153 partner): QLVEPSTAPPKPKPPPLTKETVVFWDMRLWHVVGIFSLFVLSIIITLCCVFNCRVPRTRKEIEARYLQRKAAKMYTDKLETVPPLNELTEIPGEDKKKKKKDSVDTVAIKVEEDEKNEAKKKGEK
Experiment: Whole-cell poking patch-clamp assay, DHS sensitivity of MS currents
Assay type: cell-based
Conditions: 2 mM DHS in the bath; PK-HEK293T cells co-expressing Fyn-mTMC2-mCherry and mTMIE; 4 experiments, p=0.0044
Procedure: Briefly, PK-HEK293T cells were incubated for 24 h after transfection before performing the whole-cell patch-clamp assay at room temperature. For co-transfection of two plasmids, the w/w ratio of TMC1/2 plasmids and TMIE plasmid was 3:1. The bath solution contained (in mM) 137 NaCl, 5.8 KCl, 0.7 NaH2PO4, 10 HEPES, 1.3 CaCl2, 0.9 MgCl2, 5.6 glucose (pH 7.3 with NaOH); the pipette solution contained (in mM) 137 CsCl, 0.1 EGTA, 10 HEPES, 3.5 MgCl2 (pH 7.3 with CsOH). The recording glass pipettes (1B150-4 Borosilicate Glass Capillaries, World Precision Instruments) were pulled and polished using a pipette puller (DMZ, Zeitz Instruments) and featured a resistance of 3-5 MQ. The mechanical stimulus was applied by poking cells with a fire-polished glass probe with a tip diameter of 2-3 μm. […] The reversal potentials were calculated using Vpipette at zero current with correction for the junction potential of the pipette and bath solutions (+1.2 mV for whole cell recording). Data were analyzed with Clampfit 10.7 (Molecular Devices). For the measurement of the inactivation time constant, all current responses, except for traces with a noticeable shift in baseline, were individually calculated and averaged.

With `CN[C@@H]1[C@H](O[C@H]2[C@H](O[C@H]3[C@H](O)[C@@H](O)[C@H](NC(=N)N)[C@@H](O)[C@@H]3NC(=N)N)O[C@@H](C)[C@]2(O)CO)O[C@@H](CO)[C@H](O)[C@H]1O` [DHS, dihydrostreptomycin] the “DHS-sensitivity of whole-cell MS currents” value was “DHS-sensitive”.

— patent publication US20250145676A1, “FUNCTIONAL EXPRESSION OF ECTOPIC TMC1 AND TMC2 IN HETEROLOGOUS CELLS” (The Hong Kong University of Science and Technology, priority 2023, published 2025)
